We go through 23 molecules from ChEMBL document CHEMBL5042544, “Discovery of a Potent and Selective ATAD2 Bromodomain Inhibitor with Antiproliferative Activity in Breast Cancer Models” (J Med Chem, 2022).

Structures are written as SMILES.

Data set [1] has as its target T1, ATPase family AAA domain-containing protein 2 (Homo sapiens, UniProt Q6PL18).
T1 sequence (Q6PL18 whole entry): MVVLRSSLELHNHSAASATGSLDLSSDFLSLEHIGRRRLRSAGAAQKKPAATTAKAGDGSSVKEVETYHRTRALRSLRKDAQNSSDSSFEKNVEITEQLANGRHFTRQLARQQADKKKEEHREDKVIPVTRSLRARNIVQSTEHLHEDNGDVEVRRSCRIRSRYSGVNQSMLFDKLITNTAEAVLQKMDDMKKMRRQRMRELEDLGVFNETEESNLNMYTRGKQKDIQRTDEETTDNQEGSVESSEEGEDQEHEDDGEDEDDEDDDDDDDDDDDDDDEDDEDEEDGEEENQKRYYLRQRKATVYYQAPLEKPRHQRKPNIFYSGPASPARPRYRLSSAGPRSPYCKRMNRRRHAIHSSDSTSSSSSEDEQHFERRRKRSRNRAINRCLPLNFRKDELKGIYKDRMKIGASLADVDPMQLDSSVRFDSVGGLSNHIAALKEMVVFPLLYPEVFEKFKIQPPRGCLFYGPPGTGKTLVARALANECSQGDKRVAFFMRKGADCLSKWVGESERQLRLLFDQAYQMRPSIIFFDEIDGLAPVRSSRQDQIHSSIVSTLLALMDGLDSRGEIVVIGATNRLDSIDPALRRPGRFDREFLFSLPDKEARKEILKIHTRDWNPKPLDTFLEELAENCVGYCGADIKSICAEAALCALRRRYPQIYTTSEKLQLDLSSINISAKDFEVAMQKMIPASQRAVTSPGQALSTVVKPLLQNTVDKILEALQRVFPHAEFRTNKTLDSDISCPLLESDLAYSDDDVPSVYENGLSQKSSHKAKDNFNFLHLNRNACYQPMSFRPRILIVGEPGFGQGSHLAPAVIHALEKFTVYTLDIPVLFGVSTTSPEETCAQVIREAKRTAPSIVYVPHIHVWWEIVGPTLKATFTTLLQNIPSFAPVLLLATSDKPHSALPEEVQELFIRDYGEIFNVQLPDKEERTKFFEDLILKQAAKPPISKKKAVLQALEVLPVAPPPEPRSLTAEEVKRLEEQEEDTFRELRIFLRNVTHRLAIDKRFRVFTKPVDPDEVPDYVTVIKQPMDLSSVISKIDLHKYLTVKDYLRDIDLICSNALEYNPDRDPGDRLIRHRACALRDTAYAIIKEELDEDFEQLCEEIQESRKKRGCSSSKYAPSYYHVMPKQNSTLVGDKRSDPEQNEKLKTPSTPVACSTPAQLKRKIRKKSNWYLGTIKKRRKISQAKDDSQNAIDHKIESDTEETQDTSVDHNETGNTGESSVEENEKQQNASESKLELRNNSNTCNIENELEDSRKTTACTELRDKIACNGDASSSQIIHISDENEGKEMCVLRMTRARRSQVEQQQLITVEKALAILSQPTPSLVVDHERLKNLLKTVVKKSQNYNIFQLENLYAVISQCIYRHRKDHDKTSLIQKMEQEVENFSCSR
Description: Displacement of Halo-tagged Histone H3.3 from Nanoluc-ATAD2A BD (962 to 1119 residues) (unknown origin) transfected in human HCT116 cells incubated for 18 hrs by NanoBRET assay. The class given is cell-based, HCT-116. On the technique in general: In BRET a luciferase serves as donor, and the signal depends on an acceptor being close.

Data set [2] has as its target T2, Bromodomain-containing protein 4 (Homo sapiens, UniProt O60885). Description: Displacement of Halo-tagged Histone H3.3 from Nanoluc-BRD4 BD1/BD2 (44 to 460 residues) (unknown origin) transfected in human HCT116 cells incubated for 18 hrs by NanoBRET assay. The class given is cell-based, HCT-116.
For data set [3], the target named is T1, ATPase family AAA domain-containing protein 2. Description: Displacement of Halo-tagged Histone H3.3 from Nanoluc-ATAD2 BD (962 to 1119 residues) (unknown origin) transfected in human HCT116 cells incubated for 18 hrs in presence of efflux inhibitor reversan by NanoBRET assay. The class given is cell-based, HCT-116.
Data set [4] shares this target. The experiment in a line: Displacement of Halo-tagged Histone H3.3 from Nanoluc-ATAD2 BD (962 to 1119 residues) (unknown origin) transfected in human HCT116 cells incubated for 18 hrs in presence of efflux inhibitor verapamil by NanoBRET assay. The class given is cell-based, HCT-116.
Data set [5] has the same target. Description: Inhibition of GST-ATAD2 BD (951 to 1132 residues) (unknown origin) expressed in Escherichia coli BL21 (DE3) and biotinylated tetra-acetylated histone H4 peptides as substrate incubated for 30 mins by TR-FRET assay. A general note: Time-resolved FRET reads energy transfer from a long-lived donor to a nearby acceptor.
For data set [6] the target is unchanged. The experiment in a line: Inhibition of GST-ATAD2 BD (951 to 1132 residues) (unknown origin) expressed in Escherichia coli BL21 (DE3) and biotinylated tetra-acetylated histone H4 peptides as substrate by TR-FRET artifact assay.
For data set [7], the target named is T2, Bromodomain-containing protein 4. Description: Displacement of Alexafluor 647-JQ1 from GST-BRD4 BD1 BD2 (44 to 460 residues) (unknown origin) incubated for 60 mins by fluorescence polarization assay. (In general: In fluorescence polarisation assays a small probe gives low polarisation when free and higher when bound to something large.)
The nature of data set [8]: Distribution coefficient, logD of compound at pH 7.4. The class given is physicochemical. The conditions noted are these: octanol/water.
Data set [9] concerns the target T1, ATPase family AAA domain-containing protein 2. Description: Displacement of Halo-tagged Histone H3.3 from Nanoluc-ATAD2 BD (962 to 1119 residues) (unknown origin) transfected in human HCT116 cells incubated for 18 hrs in presence of efflux inhibitor elacridar by NanoBRET assay. The class given is cell-based, HCT-116.
The species entered for a further data set is Homo sapiens. The experiment in a line: Selectivity ratio of IC50 for Inhibition of […] GST-ATAD2 BD (981 to 1108 residues) (unknown origin) expressed in Escherichia coli BL21 (DE3) to IC50 for Halo-tagged Histone H3.3 from Nanoluc-ATAD2 BD ([…] residues) (unknown origin) transfected in human HCT116 cells.
The target in data set [10] is T1, ATPase family AAA domain-containing protein 2. The experiment in a line: Inhibition of GST-ATAD2 BD (981 to 1108 residues) (unknown origin) expressed in Escherichia coli BL21 (DE3) and biotinylated tetra-acetylated histone H4 peptides as substrate incubated for 30 mins by TR-FRET assay.
A further data set deals with MDA-MB-231. The experiment in a line: Antiproliferative activity against human MDA-MB-231 cells assessed as inhibition of proliferation after 72 hrs. The class given is functional.

With `C[C@H]1NC(=O)[C@@H]2Cc3ccccc3[C@H]1N2C(=O)c1cn(C)c(=O)c2[nH]c3ccc(OC(F)(F)F)cc3c12`, the concentration for half-maximal inhibition (IC50) – broadly, the midpoint of a concentration-inhibition curve – in data set [1] is 1.26 µM; in data set [2], 126 µM; in data set [3], 0.794 µM; in data set [4], 0.501 µM; in data set [5], 0.078 µM; in [6], over 25.1 µM. Besides, the IC50 is over 31.6 µM in [7] and 0.794 µM in [9]. Besides, the logD (usually lipophilicity at a set pH, counting ionised and neutral species) in data set [8] is 3.4. Also, in the data set listed under Homo sapiens, the Ratio IC50 was determined as 16.
Turning to `Cc1nnc2c(NC3CCN(C)CC3)cc(C(=O)N3[C@H]4Cc5ccccc5[C@@H]3CNC4=O)nn12`, the half-maximal inhibitory concentration (IC50) in data set [1] was 2.51 µM; in data set [2], 31.6 µM; in data set [5] it was 0.3 µM; in data set [6], over 25.1 µM; in [10], 0.0316 µM; in [7], over 31.6 µM. The same molecule came in with a logD in [8] of 0.2. Moreover, the Ratio IC50 in the data set filed under Homo sapiens stood at 79.
For `Cc1nnc2c(N)cc(C(=O)N3[C@H]4Cc5ccccc5[C@@H]3CNC4=O)nn12`, the IC50 in [5] is 0.28 µM; in [6] it was over 25.1 µM; in data set [7], 25.1 µM. Also, the logD in data set [8] is 0.8.
In the case of `COc1cc(C(=O)N2[C@H]3Cc4ccccc4[C@@H]2CNC3=O)cc(OC)c1O`, the results for the IC50 in [5], in data set [6] and in data set [7] were 21.2 µM, over 25.1 µM and over 31.6 µM, respectively. In addition, the logD in data set [8] was found to be 0.9.
In the same order, the values of `COc1cc(C(=O)N2C3Cc4ccccc4C2CNC3=O)cc(OC)c1O` (stereo unspecified) are 20.2 µM, over 25.1 µM, over 31.6 µM and 0.9.
In the same order, the values of `Cn1cc(C(=O)N2[C@H]3Cc4ccccc4[C@@H]2CNC3=O)c2cc[nH]c2c1=O` are 1.48 µM, over 25.1 µM, 15.8 µM and 0.7.
Regarding `Cc1nnc2c(NC3CCN(CC(C)(F)F)CC3)cc(C(=O)N3[C@@H]4c5ccccc5C[C@H]3C(=O)N[C@@H]4C(C)C)nn12`, the IC50 was 0.501 µM in data set [1]; 50.1 µM in [2]; 0.501 µM in data set [3]; 0.501 µM in [4]; 0.022 µM in [5]; over 25.1 µM in data set [6]. For the same molecule, the IC50 is over 31.6 µM in [7] and 0.501 µM in data set [9]. Moreover, in [8], the logD is 3. The Ratio IC50 in the data set listed under Homo sapiens came out at 25.
`Cc1cc(C(=O)N2[C@H]3Cc4ccccc4[C@@H]2CNC3=O)c[nH]c1=O`: the IC50 in data set [5] was 26.3 µM; in data set [6], over 25.1 µM; in [7] it was over 31.6 µM. This molecule registered a logD in [8] of 0.3.
Take `Cc1nnc2c(N)cc(C(=O)N3[C@H]4Cc5ccccc5[C@@H]3CNC4=O)cn12`: the IC50 is 6.08 µM in data set [5], over 25.1 µM in [6] and over 31.6 µM in data set [7]. The same molecule showed a logD in data set [8] of 0.1.
For `COc1cc(C(=O)N2[C@H]3Cc4ccccc4[C@@H]2CNC3=O)cc2c(C)n[nH]c12` the same measures were 4.88 µM, over 251 µM, over 31.6 µM and 2.
For `CN1C[C@H]2c3ccccc3C[C@@H](C1=O)N2C(=O)c1cn(C)c(=O)c2[nH]ccc12` the same measures were 3.56 µM, over 25.1 µM, 7.94 µM and 0.9.
Turning to `C[C@H]1NC(=O)[C@@H]2Cc3ccccc3[C@H]1N2C(=O)c1cn(C)c(=O)c2[nH]c3ccccc3c12`, the IC50 is 0.21 µM in [5], over 25.1 µM in [6] and 31.6 µM in data set [7]. In addition, the logD in data set [8] is 1.9.
Take `Cc1nnc2c(NC3CCN(C)CC3)nc(C(=O)N3[C@H]4Cc5ccccc5[C@@H]3CNC4=O)cn12`: the IC50 in data set [5] was over 20 µM. In data set [8], the logD is -0.3.
For `Cc1nnc2c(NCCCN3CCCC3)cc(C(=O)N3[C@@H]4c5ccccc5C[C@H]3C(=O)N[C@@H]4C(C)C)nn12`, the IC50 in data set [1] was 2 µM; in data set [2] it was 25.1 µM; in [5], 0.014 µM; in data set [6], over 25.1 µM; in data set [7], 25.1 µM. For the same molecule, in [8], the logD came out at 0.5. For the same molecule, the Ratio IC50 in the data set listed under Homo sapiens was 126.
In the case of `Cn1cc(C(=O)N2[C@H]3Cc4ccccc4[C@@H]2CNC3=O)c2c([nH]c3ccccc32)c1=O`, the IC50 in data set [5] was 0.42 µM; in data set [6] it was over 25.1 µM; in [7], 7.94 µM. The logD in data set [8] turned out to be 2.
In the same order, the values of `CC(C)[C@H]1NC(=O)[C@@H]2Cc3ccccc3[C@H]1N2C(=O)c1cn(C)c(=O)c2[nH]c3ccccc3c12` are 0.44 µM, over 25.1 µM, over 31.6 µM and 2.6.
For `Cc1nnc2c(NCCCN3CCCC3)cc(C(=O)N3[C@H]4Cc5ccccc5[C@@H]3CNC4=O)nn12` the same measures were 0.041 µM, over 25.1 µM, over 31.6 µM and -0.3.
Regarding `CNc1cc(C(=O)N2[C@H]3Cc4ccccc4[C@@H]2CNC3=O)cn(C)c1=O`, the IC50 in data set [5] was 11.8 µM; in [6], over 25.1 µM. This molecule yielded a logD in data set [8] of 0.5.
`CC1=C(C#N)c2nc(N)c(C#N)c(C)c2/C1=C\c1ccc(-c2cc(C(=O)O)ccc2Cl)o1`: the IC50 in data set [10] was 3.16 µM. Moreover, the GI50 (usually the concentration at which growth is held to half of that of the control) with MDA-MB-231 is 1 µM.
Turning to `Cc1nnc2c(NC3CCN(C)CC3)cc(C(=O)N3[C@H]4Cc5ccccc5[C@@H]3CNC4=O)cn12`, the IC50 in data set [5] was 0.37 µM; in data set [6], over 25.1 µM; in data set [7], over 31.6 µM. Further, in data set [8], the logD is -0.5.
For `Cn1cc(C(=O)N2[C@H]3Cc4ccccc4[C@@H]2CNC3=O)cc(N)c1=O` the same measures were 34.3 µM, over 25.1 µM, over 31.6 µM and 0.
For the molecule `Cc1nnc2c(NCCCN3CCC(F)(F)CC3)cc(C(=O)N3[C@@H]4c5ccccc5C[C@H]3C(=O)N[C@@H]4C(C)C)nn12`, the IC50 in [1] was 1.26 µM; in data set [2], 31.6 µM; in [5], 0.02 µM; in data set [6] it was over 25.1 µM; in [7] it was over 31.6 µM. This molecule displayed a logD in [8] of 3. Further, in the data set filed under Homo sapiens, the Ratio IC50 was determined as 63.
With `CO[C@H]1CNC[C@@H](OCC2CCC(F)(F)CC2)[C@@H]1Nc1ncc(-c2cncc(C)c2)c2cc(C)c(=O)[nH]c12`, in [8], the logD was found to be 2.7.
